Values of other authors as cited in paper PMC11866498 (Cell Reports Medicine, 2025).

Assays:
[1] = ref Previous studies
[2] = ref Previous studies; remark: listed apart in the source

## C[C@H]1COC2=C1C(=O)C(=O)c1c2ccc2c1CCCC2(C)C [CTS, cryptotanshinone]
[1]
  water solubility: inadequate
[2]
  in vivo stability: inadequate
